Measurements as given in US20020137929A1, “1 - (3-heterocyclylphenyl) isothiourea, -isourea, -guanidine and -amidine herbicidal agents” (Intellectual Property Department, BASF Aktiengesellschaft, priority 1998, published 2002).

Assays:
[1] = system: CHEAL (Lambsquarters, Common); test: Postemergence herbicidal evaluation; format: in vivo, Chenopodium album; conditions: postemergence
How it was run: (§1)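 Compound is applied as a foliar spray to seedlings about two weeks old, formulated in equal parts acetone and water with 0.5% TWEEN 20 and delivered at 40 psi to give about 0.0156–0.500 kg per hectare. Injury is rated visually 0–9 after four to five weeks.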

MOOVA (Monochoria) = test: Preemergence weed control under flooded paddy conditions; format: in vivo, Monochoria vaginalis; conditions: rated 3-4 weeks after treatment
How it was run: (§2)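 Silt loam, seeds in top 0.5 cm; flood held 1.5-3 cm; test cpd as acetone/water 50/50 into flood water, ~0.0313-0.500 kg/ha a.i.; greenhouse 3-4 wk; visual 0-9 score vs control.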

GALAP (Galium) [2] = test: Preemergence herbicidal evaluation; format: in vivo, Galium aparine; conditions: rated 4-5 weeks after treatment
How it was run: (§3)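 Seeds were mixed with potting soil and planted on about one inch of soil, then sprayed with test compound in aqueous acetone at about 0.0156 to 0.500 kg per hectare. Plants grew under standard greenhouse care and were visually rated 0-9 against untreated controls 4-5 weeks post-treatment.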

[3] = system: SAGPY (Arrowhead (Pygmaea)); test: Preemergence weed control under flooded paddy conditions; format: in vivo, Sagittaria pygmaea; conditions: rated 3-4 weeks after treatment
How it was run: as §2

[4] = system: TRZAWR (Wheat, Winter, cv Riband); test: Preemergence herbicidal evaluation; format: in vivo, Triticum aestivum; conditions: rated 4-5 weeks after treatment
How it was run: as §3

CASOB (Sicklepod) [5] = test: Postemergence herbicidal evaluation; format: in vivo, Cassia obtusifolia; conditions: postemergence
How it was run: as §1

[6] = system: IPOHE (Morningglory, Ivyleaf); test: Preemergence herbicidal evaluation; format: in vivo, Ipomoea hederacea; conditions: rated 4-5 weeks after treatment
How it was run: as §3

ECHCG (Barnyardgrass) = test: Preemergence herbicidal evaluation; format: in vivo, Echinochloa crus-galli; conditions: rated 4-5 weeks after treatment
How it was run: as §3

CASOB (Sicklepod) [7] = test: Preemergence herbicidal evaluation; format: in vivo, Cassia obtusifolia; conditions: rated 4-5 weeks after treatment
How it was run: as §3

ORYSAT (Rice, Tebonnet) = test: Preemergence herbicidal evaluation; format: in vivo, Oryza sativa, (L.) Tebonnet; conditions: rated 4-5 weeks after treatment
How it was run: as §3

[8] = system: IPOHE (Morningglory, Ivyleaf); test: Postemergence herbicidal evaluation; format: in vivo, Ipomoea hederacea; conditions: postemergence
How it was run: as §1

[9] = system: TRZAWR (Wheat, Winter, cv Riband); test: Postemergence herbicidal evaluation; format: in vivo, Triticum aestivum; conditions: postemergence
How it was run: as §1

ZEAMX (Corn, Field) = test: Postemergence herbicidal evaluation; format: in vivo, Zea mays; conditions: postemergence
How it was run: as §1

ABUTH (Velvetleaf) = test: Postemergence herbicidal evaluation; format: in vivo, Abutilon theophrasti; conditions: postemergence
How it was run: as §1

SETVI (Foxtail, Green) = test: Preemergence herbicidal evaluation; format: in vivo, Setaria viridis; conditions: rated 4-5 weeks after treatment
How it was run: as §3

[10] = system: GLXMAW (Soybean, Williams); test: Preemergence herbicidal evaluation; format: in vivo, Glycine max, (L.) Merr. cv Williams; conditions: rated 4-5 weeks after treatment
How it was run: as §3

GALAP (Galium) [11] = test: Postemergence herbicidal evaluation; format: in vivo, Galium aparine; conditions: postemergence
How it was run: as §1

## C=CCN1C(=O)C(CC(=O)NS(=O)(=O)C(C)C)SC1=Nc1cc(-n2c(=O)cc(C(F)(F)F)n(C)c2=O)c(F)cc1Cl (stereo not shown) [Compound 118, 3-Allyl-2-{{2-chloro-5-[3,6-dihydro-3-methyl-2,6-dioxo-4-(trifluoromethyl)-1(2H)-pyrimidinyl]-4-fluorophenyl}imino}-N-(isopropylsulfonyl)-4-oxo-5-thiazolidineacetamide]
[1]; rate 0.0158 kg/ha
  herbicidal rating CHEAL: 0.0
[1]; rate 0.0315 kg/ha
  herbicidal rating CHEAL: 0.0
[1]; rate 0.0630 kg/ha
  herbicidal rating CHEAL: 5.0
MOOVA (Monochoria); 0.0313 kg/ha
  herbicidal effect rating, MOOVA: 4.0
MOOVA (Monochoria); 0.0625 kg/ha
  herbicidal effect rating, MOOVA: 4.0
MOOVA (Monochoria); 0.1250 kg/ha
  herbicidal effect rating, MOOVA: 6.0
MOOVA (Monochoria); 0.2500 kg/ha
  herbicidal effect rating, MOOVA: 7.0
GALAP (Galium) [2]; rate 0.0625 kg/ha
  Preemergence herbicidal rating GALAP: 1.0
GALAP (Galium) [2]; rate 0.1250 kg/ha
  Preemergence herbicidal rating GALAP: 6.0
GALAP (Galium) [2]; rate 0.2500 kg/ha
  Preemergence herbicidal rating GALAP: 7.0
[3]; 0.0313 kg/ha
  herbicidal effect rating, SAGPY: 0.0
[3]; 0.0625 kg/ha
  herbicidal effect rating, SAGPY: 0.0
[3]; 0.1250 kg/ha
  herbicidal effect rating, SAGPY: 3.0
[3]; 0.2500 kg/ha
  herbicidal effect rating, SAGPY: 3.0
[4]; rate 0.0625 kg/ha
  Preemergence herbicidal rating TRZAWR: 0.0
[4]; rate 0.1250 kg/ha
  Preemergence herbicidal rating TRZAWR: 0.0
[4]; rate 0.2500 kg/ha
  Preemergence herbicidal rating TRZAWR: 0.0
CASOB (Sicklepod) [5]; rate 0.0158 kg/ha
  herbicidal rating CASOB: 0.0
CASOB (Sicklepod) [5]; rate 0.0315 kg/ha
  herbicidal rating CASOB: 0.0
CASOB (Sicklepod) [5]; rate 0.0630 kg/ha
  herbicidal rating CASOB: 0.0
[6]; rate 0.0625 kg/ha
  Preemergence herbicidal rating IPOHE: 0.0
[6]; rate 0.1250 kg/ha
  Preemergence herbicidal rating IPOHE: 1.0
[6]; rate 0.2500 kg/ha
  Preemergence herbicidal rating IPOHE: 6.0
ECHCG (Barnyardgrass); rate 0.0625 kg/ha
  Preemergence herbicidal rating ECHCG: 0.0
ECHCG (Barnyardgrass); rate 0.1250 kg/ha
  Preemergence herbicidal rating ECHCG: 0.0
ECHCG (Barnyardgrass); rate 0.2500 kg/ha
  Preemergence herbicidal rating ECHCG: 0.0
CASOB (Sicklepod) [7]; rate 0.0625 kg/ha
  Preemergence herbicidal rating CASOB: 0.0
CASOB (Sicklepod) [7]; rate 0.2500 kg/ha
  Preemergence herbicidal rating CASOB: 4.0
ORYSAT (Rice, Tebonnet); rate 0.0625 kg/ha
  Preemergence herbicidal rating ORYSAT: 0.0
ORYSAT (Rice, Tebonnet); rate 0.1250 kg/ha
  Preemergence herbicidal rating ORYSAT: 0.0
ORYSAT (Rice, Tebonnet); rate 0.2500 kg/ha
  Preemergence herbicidal rating ORYSAT: 0.0
[8]; rate 0.0158 kg/ha
  herbicidal rating IPOHE: 1.0
[8]; rate 0.0315 kg/ha
  herbicidal rating IPOHE: 7.0
[8]; rate 0.0630 kg/ha
  herbicidal rating IPOHE: 9.0
[9]; rate 0.0158 kg/ha
  herbicidal rating TRZAWR: 2.0
[9]; rate 0.0315 kg/ha
  herbicidal rating TRZAWR: 2.0
[9]; rate 0.0630 kg/ha
  herbicidal rating TRZAWR: 2.0
ZEAMX (Corn, Field); rate 0.0158 kg/ha
  herbicidal rating ZEAMX: 3.5
ZEAMX (Corn, Field); rate 0.0315 kg/ha
  herbicidal rating ZEAMX: 4.0
ZEAMX (Corn, Field); rate 0.0630 kg/ha
  herbicidal rating ZEAMX: 4.5
ABUTH (Velvetleaf); rate 0.0158 kg/ha
  herbicidal rating ABUTH: 0.0
ABUTH (Velvetleaf); rate 0.0315 kg/ha
  herbicidal rating ABUTH: 4.0
ABUTH (Velvetleaf); rate 0.0630 kg/ha
  herbicidal rating ABUTH: 9.0
SETVI (Foxtail, Green); rate 0.0625 kg/ha
  Preemergence herbicidal rating SETVI: 0.0
SETVI (Foxtail, Green); rate 0.1250 kg/ha
  Preemergence herbicidal rating SETVI: 0.0
SETVI (Foxtail, Green); rate 0.2500 kg/ha
  Preemergence herbicidal rating SETVI: 2.0
[10]; rate 0.0625 kg/ha
  Preemergence herbicidal rating GLXMAW: 1.0
[10]; rate 0.1250 kg/ha
  Preemergence herbicidal rating GLXMAW: 0.0
[10]; rate 0.2500 kg/ha
  Preemergence herbicidal rating GLXMAW: 3.0
GALAP (Galium) [11]; rate 0.0158 kg/ha
  herbicidal rating GALAP: 0.0
GALAP (Galium) [11]; rate 0.0315 kg/ha
  herbicidal rating GALAP: 0.0
GALAP (Galium) [11]; rate 0.0630 kg/ha
  herbicidal rating GALAP: 1.0
